From ChEMBL document CHEMBL1201862, “PubChem BioAssay data set” (2004) come the findings set out here.

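Test compounds were applied to cells in 96-well plates for 48 hours at 5 doses. GI50 is the concentration that inhibits growth by half.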 The source made the active and inactive calls. No stated cut-off is given here; in the data, active = GI50 up to about 1.1 µM and inactive = higher.

Test systems include 786-0; HT-29; A549; SK-MEL-28; MDA-N; Malme-3M; TK-10; SK-MEL-5; HOP-92; COLO 205; SK-OV-3; MDA-MB-435; UO-31; SW-620; DU-145; A498; Hs-578T; NCI/ADR-RES; SF-539; NCI-H522.
What all share (test): NCI tumour cell line growth inhibition, 48 h

`O=C(N/N=C\c1ccc([N+](=O)[O-])cc1)c1ccccc1Nc1ccccc1C(=O)N/N=C/c1ccc([N+](=O)[O-])cc1`: the GI50 in the test on 786-0 is > 100 µM (inactive); in the test with HT-29, > 100 µM (inactive); in the test on A549, > 100 µM (inactive); in the test with SK-MEL-28, > 100 µM (inactive); with MDA-N, > 100 µM (inactive); in the test with Malme-3M, 39.4 µM (inactive). The GI50 with TK-10, in the test with SK-MEL-5, in the test with HOP-92, in the test on COLO 205, with SK-OV-3 and in the test with MDA-MB-435 was > 100 µM (inactive) throughout. Besides, the GI50 in the test with UO-31, in the test with SW-620, in the test on DU-145, with A498, with Hs-578T and with NCI/ADR-RES was > 100 µM (inactive) throughout.

Regarding `Cc1nc2c3c(ncn2n1)Oc1c(c(-c2ccccc2)nn1-c1ccccc1)C3c1ccc(Cl)cc1` (centres undefined), the GI50 was 39 µM (inactive) with 786-0; > 100 µM (inactive) in the test with HT-29; 22.3 µM (inactive) in the test on SF-539; > 100 µM (inactive) in the test with A549; > 100 µM (inactive) with SK-MEL-28; > 100 µM (inactive) with MDA-N. Besides, the GI50 in the test on Malme-3M is 46.1 µM (inactive); in the test with TK-10, 39.4 µM (inactive); with HOP-92 it was 98.4 µM (inactive); in the test on COLO 205, > 100 µM (inactive); with SK-OV-3 it was 43.3 µM (inactive); in the test on MDA-MB-435 it was > 100 µM (inactive). Further, the GI50 in the test on UO-31 is > 100 µM (inactive); in the test on SW-620 it was > 100 µM (inactive); in the test with DU-145, > 100 µM (inactive); in the test on A498 it was > 100 µM (inactive); in the test with Hs-578T, 23.2 µM (inactive); in the test on NCI/ADR-RES, > 100 µM (inactive).

As for `COC(=O)/C=C/[C@H]1[C@H](C)N1S(=O)(=O)c1ccc(C)cc1` (some centres undefined), the GI50 in the test on 786-0 was 82.4 µM (inactive); in the test with HT-29, > 100 µM (inactive); in the test with SF-539, 37 µM (inactive); with A549, > 100 µM (inactive); with SK-MEL-28, > 100 µM (inactive); in the test on MDA-N it was > 100 µM (inactive). For the same compound, the GI50 in the test with NCI-H522 was 48.6 µM (inactive); with Malme-3M, 50.2 µM (inactive); in the test with TK-10, > 100 µM (inactive); with SK-MEL-5, > 100 µM (inactive); in the test on COLO 205, > 100 µM (inactive); with SK-OV-3, > 100 µM (inactive). Moreover, the GI50 with MDA-MB-435 was 56.5 µM (inactive); in the test with SW-620, 80.4 µM (inactive); in the test on DU-145, > 100 µM (inactive); with A498 it was > 100 µM (inactive); with Hs-578T it was > 100 µM (inactive); with NCI/ADR-RES, > 100 µM (inactive).

For the compound `Nc1ccc(-c2nc3ccccc3s2)cc1CO`, the GI50 in the test with 786-0 was > 100 µM (inactive); in the test on HT-29, > 100 µM (inactive); in the test with A549, > 58.7 µM (inactive); in the test with SK-MEL-28, > 100 µM (inactive); in the test with MDA-N, > 86.3 µM (inactive); in the test with NCI-H522, 52.8 µM (inactive). Further, the GI50 in the test with Malme-3M was > 100 µM (inactive); in the test with TK-10 it was > 100 µM (inactive); in the test on SK-MEL-5, 49.4 µM (inactive); in the test on HOP-92 it was > 54.8 µM (inactive); in the test with COLO 205, > 100 µM (inactive); in the test with SK-OV-3, > 100 µM (inactive). The GI50 with MDA-MB-435 is > 87.5 µM (inactive); in the test on UO-31, 10.5 µM (inactive); with SW-620 it was > 100 µM (inactive); with DU-145 it was > 94.8 µM (inactive); in the test with A498, < 0.01 µM (active); in the test with Hs-578T, > 83.6 µM (inactive). For the same compound, the GI50 with NCI/ADR-RES was > 79.8 µM (inactive).

As for `Cc1csc(-n2nc(C)cc2C)n1`, the GI50 with 786-0, in the test on HT-29, in the test on SF-539, in the test on A549, with SK-MEL-28 and in the test on MDA-N was > 100 µM (inactive) throughout. Moreover, the GI50 with NCI-H522, with Malme-3M, in the test with TK-10, in the test on SK-MEL-5, in the test with COLO 205 and in the test with SK-OV-3 was > 100 µM (inactive) each time. Further, the GI50 in the test with MDA-MB-435, in the test on UO-31, in the test on SW-620, in the test on DU-145, in the test with A498 and in the test on Hs-578T was > 100 µM (inactive) in each case. The GI50 in the test on NCI/ADR-RES is > 100 µM (inactive).

On to `COC1OC(Cn2cc([N+](=O)[O-])nc2C)C(O)C(O)C1O` (centres undefined), for which the GI50 with 786-0, in the test with HT-29, in the test on A549, with SK-MEL-28, in the test with MDA-N and in the test on NCI-H522 was > 100 µM (inactive) each time. For the same compound, the GI50 is 5.93 µM (inactive) with Malme-3M; > 100 µM (inactive) in the test with SK-MEL-5; > 100 µM (inactive) in the test with HOP-92; > 100 µM (inactive) with COLO 205; > 100 µM (inactive) in the test on SK-OV-3; > 100 µM (inactive) with MDA-MB-435. Also, the GI50 with UO-31, with SW-620, in the test with DU-145, in the test on A498, in the test on Hs-578T and in the test with NCI/ADR-RES was > 100 µM (inactive) throughout.

On to `C=C1C(=O)CCC1C(=O)O` (centres undefined), for which the GI50 in the test with 786-0, with HT-29, with SF-539, with A549, in the test with SK-MEL-28 and in the test on MDA-N was > 100 µM (inactive) each time. Besides, the GI50 in the test with NCI-H522, with Malme-3M, in the test on TK-10, in the test with SK-MEL-5, in the test on COLO 205 and in the test with SK-OV-3 was > 100 µM (inactive) in each case. Further, the GI50 in the test on MDA-MB-435, in the test on UO-31, in the test on SW-620, in the test on DU-145, in the test with A498 and in the test on Hs-578T was > 100 µM (inactive) in each case. Also, the GI50 in the test with NCI/ADR-RES was > 100 µM (inactive).

Take `Cc1cccc2c1[C@]13OC(C)[C@]4(C)CC5OC(=O)[C@@]1(C)[C@@H]5[C@]34C(=O)O2` (some centres undefined): the GI50 in the test on 786-0, in the test with HT-29, with SF-539, in the test on A549, in the test with SK-MEL-28 and in the test with MDA-N was > 100 µM (inactive) each time. Also, the GI50 with NCI-H522, in the test with Malme-3M, in the test on TK-10, in the test on SK-MEL-5, in the test with COLO 205 and in the test on SK-OV-3 was > 100 µM (inactive) each time. Also, the GI50 in the test with MDA-MB-435, in the test on UO-31, with SW-620, in the test on DU-145, in the test with A498 and with Hs-578T was > 100 µM (inactive) throughout. The GI50 in the test on NCI/ADR-RES is > 100 µM (inactive).

With `COc1ccc(-c2c3ccccc3c(-c3ccc(OCCBr)cc3)c3ccccc23)cc1`, the GI50 in the test on 786-0, in the test on HT-29, with SF-539, in the test with A549, with SK-MEL-28 and in the test with MDA-N was > 100 µM (inactive) in each case. Besides, the GI50 in the test on NCI-H522, with Malme-3M, in the test with TK-10, in the test with SK-MEL-5, with COLO 205 and in the test with SK-OV-3 was > 100 µM (inactive) throughout. Moreover, the GI50 with MDA-MB-435 was > 100 µM (inactive); in the test on UO-31 it was 0.102 µM (active); with SW-620 it was > 100 µM (inactive); in the test on DU-145 it was > 100 µM (inactive); in the test on A498 it was > 100 µM (inactive); with Hs-578T, > 100 µM (inactive). The GI50 in the test on NCI/ADR-RES is > 100 µM (inactive).

With `O=c1c2ccccc2nc2[nH][nH]c(=S)n12`, the GI50 with 786-0, in the test with HT-29, in the test on SF-539, in the test with A549, in the test on SK-MEL-28 and in the test on MDA-N was > 100 µM (inactive) in each case. The GI50 in the test with TK-10, with SK-MEL-5, in the test on HOP-92, with COLO 205, in the test on SK-OV-3 and in the test with MDA-MB-435 was > 100 µM (inactive) throughout. Moreover, the GI50 with UO-31 was > 100 µM (inactive); with SW-620, > 100 µM (inactive); in the test on DU-145, > 100 µM (inactive); in the test on A498 it was > 100 µM (inactive); in the test on Hs-578T, 43.3 µM (inactive); in the test on NCI/ADR-RES, > 100 µM (inactive).

`CC(=O)ON(OC(C)=O)c1ccc(C)cc1`: the GI50 with 786-0, in the test on HT-29, in the test with A549, with SK-MEL-28, in the test on MDA-N and in the test with NCI-H522 was > 100 µM (inactive) in each case. Further, the GI50 with Malme-3M, with TK-10, in the test with SK-MEL-5, in the test on HOP-92, in the test with COLO 205 and with SK-OV-3 was > 100 µM (inactive) throughout. Also, the GI50 in the test with MDA-MB-435, in the test with UO-31, in the test with SW-620, in the test with DU-145, with A498 and with Hs-578T was > 100 µM (inactive) in each case. Besides, in the test with NCI/ADR-RES, the GI50 is > 100 µM (inactive).
